Test results taken from US4309559A, “Sulphonamides useful as pesticides” (FBC Limited, priority 1977, dated 1982).

Assays:
Format in all cases: in vivo
[1] = test system: Ryegrass (Lolium perenne); assay: Soil incorporation (attaclay/sand dust), growth regulatory or herbicidal effects, ryegrass; conditions: 504 h, soil incorporation 26 ppm, 21 days, 0=no effect, 100=complete kill, read-out: growth regulatory or herbicidal effect score
Procedure, shortened: (§1)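 Dust-formulated compound incorporated in potting compost, 26 or 130 ppm w/v; seeds sown, watered, 21 d at 22° C, 65-85% RH, 14 h/day 13,000 lux. Visual growth-regulatory/herbicidal score 0 (no effect) to 100 (complete kill) vs untreated.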

Wild Oat (Avena fatua) = assay: Pre-emergence soil surface spray, wild oat; conditions: soil surface spray 2.8 kg/ha, 21 days, 0=no effect, 100=complete kill
Procedure, shortened: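 Compounds are applied to the compost surface right after sowing, at 2.8 kg active ingredient per hectare. After 21 days in a controlled environment room at 22° C., any difference from untreated plants is rated visually from 0 (no effect) to 100 (complete kill).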

Maize (Zea mays) = assay: Soil incorporation (attaclay/sand dust), growth regulatory or herbicidal effects, maize; conditions: 504 h, soil incorporation 26 ppm, 21 days, 0=no effect, 100=complete kill, read-out: growth regulatory or herbicidal effect score
Procedure, shortened: as §1

[2] = test system: Linseed (Linum usitatissimum); assay: Soil incorporation (attaclay/sand dust), growth regulatory or herbicidal effects, linseed; conditions: 504 h, soil incorporation 26 ppm, 21 days, 0=no effect, 100=complete kill, read-out: growth regulatory or herbicidal effect score
Procedure, shortened: as §1

Oat (Avena sativa) = assay: Post-emergence foliar spray, herbicidal/growth regulant response, oat; conditions: 168 h, foliar spray 11.2 kg/ha, 7 days, 0=no effect, 100=complete kill, read-out: herbicidal or growth regulant response index
Procedure, shortened: (§2)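 Foliar spray, 14-day-old seedlings; 11.2 kg/ha in 450 L/ha, 1:1 aq. acetone. Controlled room 22° C., 65-85% RH, 14 h light (13,000 lux). Visual score vs untreated control at 7 d, 0–100 (100 = complete kill).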

[3] = test system: Linseed (Linum usitatissimum); assay: Post-emergence foliar spray, herbicidal/growth regulant response, linseed; conditions: 168 h, foliar spray 11.2 kg/ha, 7 days, 0=no effect, 100=complete kill, read-out: herbicidal or growth regulant response index
Procedure, shortened: as §2

## CCCS(=O)(=O)N(c1c(C)cccc1C)C(C)C(=O)OCC (stereo not drawn) [Example 24, N-(1-[ethoxycarbonyl]ethyl)-2',6'-dimethyl-1-propanesulphonanilide]
[1]
  pest or weed control at 26 µg/mL: 100%
Wild Oat (Avena fatua)
  growth regulatory or herbicidal effect score: 100
Maize (Zea mays)
  plant injury at 26 µg/mL: 60%
[2]
  pest or weed control at 26 µg/mL: 100%
Oat (Avena sativa)
  plant injury at 11200 g/ha: 30%
[3]
  pest or weed control at 11200 g/ha: 90%
